For data set [1], the target named is T1, Type-1 angiotensin II receptor (Oryctolagus cuniculus) (UniProt P34976).
T1 sequence (whole entry): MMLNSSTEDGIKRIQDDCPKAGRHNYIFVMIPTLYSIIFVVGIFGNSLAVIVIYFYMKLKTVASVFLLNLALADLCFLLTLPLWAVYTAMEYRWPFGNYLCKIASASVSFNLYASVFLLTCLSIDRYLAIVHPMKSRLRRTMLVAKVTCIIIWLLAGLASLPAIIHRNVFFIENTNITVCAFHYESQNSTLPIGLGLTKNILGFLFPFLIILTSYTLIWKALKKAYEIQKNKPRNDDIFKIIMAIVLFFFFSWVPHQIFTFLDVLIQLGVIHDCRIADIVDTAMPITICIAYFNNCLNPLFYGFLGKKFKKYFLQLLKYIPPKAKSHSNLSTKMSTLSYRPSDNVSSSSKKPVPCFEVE
Nature of the data set: Affinity for Angiotensin II receptor, type 1 by measuring its ability to antagonise the contractile effect of AngII in rabbit isolated thoracic aorta. Format: functional, tissue-based.

Data set [2] can be described thus: The compound was evaluated for volume of distribution in rat. Format: ADME, organism-based. The note with it: in vivo.
Data set [3] in a line: Bioavailability in rat. Format: ADME, organism-based. The note with it: in vivo.
Data set [4] is described as follows: The compound was evaluated for plasma clearance in rat. Type of data set: ADME, organism-based. The note with it: read-out: Clp.
Data set [5] can be described thus: The compound was evaluated for plasma half life period in rat. Type of data set: ADME, organism-based.

Molecules are shown by their SMILES. Some results are limits rather than exact numbers.

Turning to `CCc1nc(CC)n(Cc2ccc3oc(-c4ccccc4NS(=O)(=O)C(F)(F)F)c(Br)c3c2)c1C(=O)NC`, in data set [1], the pKB (commonly −log10 of the KB, conventionally taken in molar units) was determined as 9.

As for `CCc1nc(C2CC2)c(C(N)=O)n1Cc1ccc2oc(-c3ccccc3NS(=O)(=O)C(F)(F)F)c(Br)c2c1` [SAPRISARTAN], in data set [2], the Vd (usually a proportionality between amount in the body and measured concentration, not a real space) came to 2.4 L/kg. Also, in data set [3], the bioavailability – broadly, dose-corrected exposure relative to a reference, in per cent – is 79%. For the same compound, the clearance in data set [4] came to 8.9 mL/min/kg. In addition, in data set [5], the half-life (commonly the time needed for the level to fall by half in the phase considered) is 3.2 h. This compound came in with a pKB in data set [1] of 9.

Consider `CCc1nc(C)c(C(=O)NC)n1Cc1ccc2oc(-c3ccccc3NS(=O)(=O)C(F)(F)F)c(Br)c2c1`, for which, in data set [2], the volume of distribution (Vd) was determined as 4.3 L/kg. In addition, the bioavailability in data set [3] came to 95%. For the same compound, the clearance in data set [4] came out at 42 mL/min/kg. This compound also had a half-life in data set [5] of 1.2 h. The same compound registered a pKB in data set [1] of 9.

Take `CCc1nc(CC(C)C)c(C(=O)NC)n1Cc1ccc2oc(-c3ccccc3NS(=O)(=O)C(F)(F)F)c(Br)c2c1`: the negative logarithm of the KB (pKB) in data set [1] was < 8.

The compound `CCc1nc(C)c(C(=O)N(C)C)n1Cc1ccc2oc(-c3ccccc3NS(=O)(=O)C(F)(F)F)c(Br)c2c1` displayed a negative logarithm of the KB (pKB) in data set [1] of 9.1.

In turn, `CCc1nc(C)c(C(=O)NCC(F)(F)F)n1Cc1ccc2oc(-c3ccccc3NS(=O)(=O)C(F)(F)F)c(Br)c2c1` yielded a pKB in data set [1] of 9.2. The pKB values of the last two compounds are within 0.2 log units of each other.

In data set [1], `CCNC(=O)c1c(C)nc(CC)n1Cc1ccc2oc(-c3ccccc3NS(=O)(=O)C(F)(F)F)c(Br)c2c1` came in with a pKB of 9.5.

Take `CCCCc1nc(Cl)c(C(=O)O)n1Cc1ccc2oc(-c3ccccc3-c3nn[nH]n3)c(Br)c2c1` [ZOLASARTAN]: in data set [2], the Vd came to 0.5 L/kg. This compound also yielded a bioavailability in data set [3] of 3%. The clearance in data set [4] came out at 0.8 mL/min/kg. This compound also gave a half-life in data set [5] of 8 h.

For the compound `CCc1nc(C)c(C(N)=O)n1Cc1ccc2oc(-c3ccccc3NS(=O)(=O)C(F)(F)F)c(Br)c2c1`, the pKB in data set [1] came to 9.

`CCc1nc(C2CC2)c(C(=O)NC)n1Cc1ccc2oc(-c3ccccc3NS(=O)(=O)C(F)(F)F)c(Br)c2c1` showed a pKB in data set [1] of 9.7.

In data set [1], `CCc1nc(C(C)C)c(C(=O)NC)n1Cc1ccc2oc(-c3ccccc3NS(=O)(=O)C(F)(F)F)c(Br)c2c1` came in with a pKB of 8.1.

These data come from ChEMBL document CHEMBL1127121, “Benzofuran based angiotensin II antagonists related to GR117289: Part III; GR138950, a triflamide with high oral bioavailability” (Bioorg Med Chem Lett, 1993).
